Laboratory results reported in patent US9169269B2, “Water-soluble solid pharmaceutical inclusion complexes and their aqueous solutions for oral, ophthalmic, topical or parenteral use containing a macrolide and certain cyclodextrins” (EUTICALS SPA, priority 2010, dated 2015).

Key:
Format in all cases: physicochemical
[1] = Stability of Everolimus gamma CD complex versus amorphous Everolimus (powder) at 60° C., total impurities (HPLC); details: powder 60° C.
Experimental: For the HPLC determination of the chromatographic purity of Temsirolimus and Everolimus: Column: Zorbax SB-C18; 3.5 μm (75×4.6 mm), Precolumn: Symmetry Shield RP18; 5 μm (20×3.9 mm).
Mobile Phase composition: • Component A: 900 ml of water, 100 ml of acetonitrile and 50 μl of 50% aqueous acetic acid • Component B: 1000 ml of acetonitrile and 50 μl of 50% aqueous acetic acid Gradient elution: […]
Flow rate: 1 ml/min. Column temperature: 60° C. Volume of injection: 20 μl.
Sample preparation: solution of 0.5 mg/ml in acetonitrile. Detector UV: 278 nm
The stability data on Everolimus complex with CD prepared according each of the examples 2 and 3 are reported on FIG. 3 and on Table 7.
In particular, in FIG. 3, are reported the sum of the related by products originated by degradation (HPLC data in area %) during a stability tests performed on the powder at 60° C. for 96 hours.

[2] = Stability of amorphous and crystalline Rapamycin at 60° C. (HPLC chromatographic purity); details: for decrease of chromatographic purity: after 408 hours (17 days)
Experimental: For the HPLC determination of chromatographic purity of Rapamycin: Column: Thermo BDS Hypersil C18; 3 μm (100×4.6 mm). Mobile Phase composition: isocratic elution • Component A: 50% acetonitrile • Component B: 50% ammonium acetate buffer pH 5.8 (concentration 0.8 g/l of ammonium acetate; the final pH value was brought to a final value of 5.8 with glacial acetic acid)
Flow rate: 1.0 ml/min. Column temperature: 55° C. Volume of injection: 100 μl.
Sample solution: weight 25 mg of Rapamycin and dissolve in 100 ml of acetonitrile/water 1/1 v/v (final concentration 0.25 mg/ml). UV detector: 278 nm

[3] = Preliminary stability tests on micronized Rapamycin and in solution (ethanol); details: finely micronized (10^−5 microns) and in solution (ethanol), within few hours
Source text: In order to proceed with formulative studies we have performed preliminary stability tests on micronized Rapamycin (10^−5 microns) and in solution (ethanol).

HPLC area % of total impurities ([1]; 0 hours) [area %] | HPLC area % of total impurities ([1]; 24 hours) [area %] | HPLC area % of total impurities ([1]; 48 hours) [area %] | HPLC area % of total impurities ([1]; 72 hours) [area %] | HPLC area % of total impurities ([1]; 96 hours) [area %] | HPLC area % of total impurities ([1]; 168 hours) [area %] | chromatographic purity (HPLC data) ([2]; 0 hours) [area %] | chromatographic purity (HPLC data) ([2]; 20 hours) [area %] | chromatographic purity (HPLC data) ([2]; 96 hours) [area %] | chromatographic purity (HPLC data) ([2]; 168 hours) [area %] | chromatographic purity (HPLC data) ([2]; 408 hours) [area %] | decrease of chromatographic purity [2] | decrease in the assay value [3] [%] | SMILES
1.5 | 2.44 | 4.52 | 7.1 | 9.2 | 14.1 |  |  |  |  |  |  |  | CO[C@H]1C[C@@H]2CC[C@@H](C)[C@@](O)(O2)C(=O)C(=O)N2CCCC[C@H]2C(=O)O[C@H]([C@H](C)C[C@@H]2CC[C@@H](OCCO)[C@H](OC)C2)CC(=O)[C@H](C)/C=C(\C)[C@@H](O)[C@@H](OC)C(=O)[C@H](C)C[C@H](C)/C=C/C=C/C=C/1C [Amorphous Everolimus, Everolimus]
 |  |  |  |  |  | 98.90 | 93.00 | 90.00 | 88.00 | 84.90 | −14% |  | CO[C@H]1C[C@@H]2CC[C@@H](C)[C@@](O)(O2)C(=O)C(=O)N2CCCC[C@H]2C(=O)O[C@H]([C@H](C)C[C@@H]2CC[C@@H](O)[C@H](OC)C2)CC(=O)[C@H](C)/C=C(\C)[C@@H](O)[C@@H](OC)C(=O)[C@H](C)C[C@H](C)/C=C/C=C/C=C/1C [Amorphous Rapamycin, Rapamycin]
 |  |  |  |  |  | 99.10 | 99.10 | 99.10 | 99.00 | 99.00 | the same chromatographic purity |  | CO[C@H]1C[C@@H]2CC[C@@H](C)[C@@](O)(O2)C(=O)C(=O)N2CCCC[C@H]2C(=O)O[C@H]([C@H](C)C[C@@H]2CC[C@@H](O)[C@H](OC)C2)CC(=O)[C@H](C)/C=C(\C)[C@@H](O)[C@@H](OC)C(=O)[C@H](C)C[C@H](C)/C=C/C=C/C=C/1C [Crystalline Rapamycin, Rapamycin]
 |  |  |  |  |  |  |  |  |  |  |  | −10 | CO[C@H]1C[C@@H]2CC[C@@H](C)[C@@](O)(O2)C(=O)C(=O)N2CCCC[C@H]2C(=O)O[C@H]([C@H](C)C[C@@H]2CC[C@@H](O)[C@H](OC)C2)CC(=O)[C@H](C)/C=C(\C)[C@@H](O)[C@@H](OC)C(=O)[C@H](C)C[C@H](C)/C=C/C=C/C=C/1C [Rapamycin]
